Measurements published in paper PMC7932537, “Quantitative profiling of protease specificity” (PLoS Computational Biology, 2021).

System: MMP-2
Experiment: Substrate phage display with NGS: relative probability (RP) of P3-P1' tetramer clusters
Assay type: biochemical, human
Conditions: for avg_RP: MMP2 - no binning
[1] = average relative probability of the tetramer, redundant tetramers averaged out
[2] = average relative probability of the P3-P1' tetramer, redundant tetramers have been averaged out
[3] = tetramer probability in MMP2 set / naive library, 200 nM protease, 2 h, 37°C
[4] = tetramer projected onto MMP-2 cleavage sites determined by Prudova et al. (2010)
[5] = average relative probability (RP) of the P3-P1' tetramer, redundant tetramers have been averaged out

Substance | avg_RP [1] | also measured
PAPM | 30.2085 | 
PAPW | 31.7353 | 
PAQM | 28.6142 | 
PASL [P3-P1' tetramer cluster] |  | avg_RP [2]: 36.4285; relative probability (RP) [3]: 36.4285; relative probability (RP) [4]: 36.43
PASM |  | avg_RP [5]: 32.7286
PAWL |  | avg_RP [5]: 34.876
PAWM |  | avg_RP [2]: 34.3571
PAYL |  | avg_RP [5]: 33.0829
PDFL |  | avg_RP [2]: 1.02
PDQL |  | avg_RP [5]: 0.2814
PEFL | 12.0159 | 
PEML |  | avg_RP [2]: 16.0599
PEPL | 26.8179 | 
PERL |  | avg_RP [5]: 16.3826
PESL | 26.0767 | 
PEWM |  | avg_RP [2]: 12.3271
PEWY | 14.0361 | 
PFFL |  | avg_RP [2]: 12.8224
PFFM |  | avg_RP [2]: 3.5092
PFHL |  | avg_RP [2]: 23.4724
PFKY | 2.0624 | 
PFLL | 9.0855 | 
PFMI |  | avg_RP [5]: 4.6361
PFML | 19.624 | 

Substance | avg_RP [1] | also measured
PFRL |  | avg_RP [2]: 16.3818
PFSN | 0.4602 | 
PFYL |  | avg_RP [2]: 17.7778
PFYM |  | avg_RP [2]: 8.1842
PGKM | 18.9001 | 
PGLL | 24.9611 | 
PGRL | 29.6024 | 
PGSM |  | avg_RP [5]: 25.6264
PGWL |  | avg_RP [2]: 33.1284
PHCL |  | avg_RP [5]: 0.499
PHGF | 21.975 | 
PHHL | 27.4742 | 
PHLL |  | avg_RP [2]: 16.4802
PHMM |  | avg_RP [2]: 14.968
PHSM |  | avg_RP [2]: 24.6739
PHWL |  | avg_RP [2]: 28.844
PHYL | 24.5149 | 
PIEL | 20.545 | 
PIGI | 31.281 | 
PIHM | 18.8886 | 
PIML |  | avg_RP [2]: 15.4441
PIPL |  | avg_RP [2]: 33.1236
PKGM | 31.666 | 
PKLI | 0.9254 | 

Substance | avg_RP [1] | also measured
PKLL | 15.3454 | 
PKNQ | 13.2723 | 
PKQL |  | avg_RP [2]: 26.0949
PKWI | 22.5059 | 
PKWL | 29.287 | 
PLAF | 31.4142 | 
PLAL |  | avg_RP [2]: 34.4921
PLAS |  | avg_RP [2]: 26.7589
PLDM |  | avg_RP [5]: 20.8822
PLGI | 33.936 | 
PLGL | 35.3536 | 
PLGM | 34.1118 | 
PLHL |  | avg_RP [2]: 34.1843
PLHM | 30.0095 | 
PLKI | 14.0985 | 
PLKV | 0.2165 | 
PLLL | 15.2696 | 
PLML | 25.0435 | 
PLMM |  | avg_RP [2]: 20.5706
PLMY | 17.2027 | 
PLNL |  | avg_RP [5]: 34.7054
PLNS | 18.9358 | 
PLNW |  | avg_RP [2]: 28.8158
PLPQ |  | avg_RP [2]: 24.381

Substance | avg_RP [1] | also measured
PLPW |  | avg_RP [5]: 30.0861
PLQI | 21.9897 | 
PLRI |  | avg_RP [5]: 15.7039
PLSI |  | avg_RP [5]: 32.2576
PLSQ |  | avg_RP [2]: 26.5842
PLSW |  | avg_RP [5]: 31.2944
PLSY | 31.2477 | 
PLTI |  | avg_RP [2]: 16.7446
PLVY | 0.5489 | 
PMDY | 10.9087 | 
PMFL | 18.5721 | 
PMGL | 34.7865 | 
PMGM |  | avg_RP [5]: 28.512
PMHL | 30.095 | 
PMLL |  | avg_RP [2]: 14.7282
PMNL |  | avg_RP [5]: 32.5586
PMNV | 12.9651 | 
PMQL |  | avg_RP [2]: 27.6586
PMRL |  | avg_RP [2]: 20.4124
PMSL |  | avg_RP [5]: 32.4868
PMWS | 5.1021 | 
PNAF | 16.8865 | 
PNFL | 15.743 | 
PNPL | 23.6266 | 

Substance | avg_RP [1] | also measured
PNRL |  | avg_RP [5]: 14.3701
PNWL |  | avg_RP [2]: 26.5667
PNYI |  | avg_RP [2]: 6.6891
PNYL | 17.2533 | 
PQAV |  | avg_RP [5]: 23.1021
PQGM | 29.6059 | 
PQHL |  | avg_RP [5]: 31.2196
PQMI | 16.6558 | 
PQRM | 19.3209 | 
PQSL |  | avg_RP [2]: 33.5105
PQSW |  | avg_RP [2]: 25.7009
PQWI | 28.1021 | 
PQWM | 29.0885 | 
PRAW |  | avg_RP [2]: 34.1791
PRFI | 22.3274 | 
PRGM | 34.3819 | 
PRGN | 16.6168 | 
PRGS | 16.3331 | 
PRLY | 15.7594 | 
PRNI | 31.9621 | 
PRNL [P3-P1' tetramer cluster] |  | relative probability (RP) [4]: 35.13
PRNT | 2.5391 | 
PRNV | 26.6015 | 
PRPV | 29.4989 | 

Substance | avg_RP [1] | also measured
PRQV | 4.0665 | 
PRSH | 18.6153 | 
PRSM | 32.6673 | 
PRSW | 32.796 | 
PRSY | 30.3745 | 
PRVL | 13.9079 | 
PRWI |  | avg_RP [5]: 30.8879
PRWL | 34.1809 | 
PRWM |  | avg_RP [2]: 32.3694
PRYM | 28.0367 | 
PRYW |  | avg_RP [2]: 20.9965
PSAL [P3-P1' tetramer cluster] | 36.1873 | relative probability (RP) [3]: 36.1873; relative probability (RP) [4]: 36.19
PSAM | 32.7825 | 
PSAQ | 28.0379 | 
PSFL |  | avg_RP [2]: 29.537
PSGF | 31.2448 | 
PSGM |  | avg_RP [2]: 32.7604
PSGW | 32.6048 | 
PSLI |  | avg_RP [5]: 16.6444
PSLY | 18.1013 | 
PSML |  | avg_RP [2]: 33.0235
PSNL [P3-P1' tetramer cluster] |  | relative probability (RP) [3]: 36.5166
PSNM |  | avg_RP [2]: 32.3748
PSRI |  | avg_RP [5]: 23.675

Substance | avg_RP [1] | also measured
PSRM | 27.1397 | 
PSSL |  | avg_RP [2]: 35.4913
PSTL | 30.1803 | 
PSWL |  | avg_RP [2]: 35.705
PSWS | 13.1501 | 
PSWV | 21.5104 | 
PTAL | 32.8941 | 
PTSL |  | avg_RP [2]: 28.926
PVAM | 31.7171 | 
PVFL | 21.7568 | 
PVGL |  | avg_RP [2]: 35.2016
PVHL | 32.2352 | 
PVHM | 25.8779 | 
PVHY | 23.3589 | 
PVNL | 34.508 | 
PVNM |  | avg_RP [5]: 30.0312
PVPM | 31.3308 | 
PVQL |  | avg_RP [2]: 26.094
PVWM | 25.8126 | 
PWAL | 31.9211 | 
PWAW | 10.3227 | 
PWFL |  | avg_RP [2]: 12.628
PWFM | 3.6842 | 
PWGL |  | avg_RP [5]: 31.3204

Substance | avg_RP [1] | also measured
PWGM | 25.1614 | 
PWHI | 10.946 | 
PWKL | 9.9628 | 
PWLQ |  | avg_RP [2]: 0.2574
PWNY | 16.9576 | 
PWSL | 28.5684 | 
PWSV | 0.3793 | 
PYAM | 28.0901 | 
PYFL |  | avg_RP [5]: 19.1471
PYGM | 27.2726 | 
PYHI | 15.3574 | 
PYHL | 27.2418 | 
PYKL | 15.5683 | 
PYKY | 4.8733 | 
PYLL |  | avg_RP [5]: 11.898
PYML |  | avg_RP [2]: 24.9477
PYNL | 30.8263 | 
PYPL | 30.8058 | 
PYSL | 30.7259 | 
PYSW | 16.4352 | 
PYTL |  | avg_RP [2]: 16.827
QLAM |  | avg_RP [2]: 5.2406
QLSL | 0.4979 | 
